Measurements reported in US20230285498A1, “TREATMENTS FOR CANCERS HAVING KRAS MUTATIONS” (City of Hope, priority 2020, published 2023).
Where two headings read alike, the source gives them in different places.

Assays:
H23 = assay: Cell proliferation assay, 2D (IncuCyte live cell imaging); assay type: cell-based
Protocol: (§1) The cells grown in 2D cultures were treated with various concentrations of the drug, and the effect on cell proliferation was determined in real time using the live cell proliferation assay (IncuCyte, Essen Bioscience, Inc.) as described in the methods.
(§2) Cell proliferation and apoptosis assay: Cell proliferation assays were performed using cell lines stably transfected with NucLight Red Lentivirus (Essen BioScience) to accurately visualize and count the nucleus of a single cell. Cells were seeded on a 96-well plate and allowed to adhere for 24 h. Test compounds were added at indicated concentrations. Caspase-3/7 Green Apoptosis Reagent (Essen BioScience) was also added as a green fluorescent indicator of caspase3/7-mediated apoptotic activity. To monitor cell proliferation and apoptosis over time, the plate was placed in the IncuCyte S3 Live Cell Imaging System (Essen BioScience) and images were acquired every 2 hours. Data analysis was generated by the IncuCyte software using a red fluorescence mask to accurately count each cell nucleus and a green fluorescence mask to measure apoptosis over time. 3D spheroid assay 3D spheroid experiments were performed using cell lines stably transfected with NucLight Red Lentivirus (Essen BioScience) to visualize red fluorescence as an indicator of cell viability. Cells were seeded on a 96-well ultra-low attachment plate and allowed to form spheroids overnight. Drug treatment was added as indicated along with Cytotox Green Reagent (Essen BioScience), used as a green fluorescence indicator of cell death due to loss of cell membrane integrity. To monitor cell proliferation and apoptosis over time, the plate was placed in the IncuCyte S3 Live Cell Imaging System (Essen BioScience) and images were acquired every 2 hours. Data analysis was generated by the IncuCyte software using a red fluorescence mask to accurately measure intensity and area of red fluorescence, indicating spheroid viability and a green fluorescence mask, indicating cell death. Cell cycle analysis.

H358 = assay: as above; assay type: cell-based; settings: Homo sapiens, NCI-H358
Protocol: as §1, §2

SW1573 = assay: as above; assay type: cell-based; settings: for IC50 / inhibition of cell growth at last time point: SW1573; for inhibition of cell growth at last time point: 96 hours
Protocol: The cells were seeded at density of 10000 cells/well 12 hours prior to the experiment. Once the cells attached to the plate the media was removed and the drugs were added to the cells. […] Cell proliferation was observed using the IncuCyte Live Imaging System for 72 hrs.
Knockdown of ITGB4 (Cat #SR302473C) at the mRNA level in the SW1573 cells was done using siRNAs purchased from OriGene Technologies (Rockville, Md., USA). JetPRIME transfection reagent (Polyplus Transfection, Illkirch, France) was used to transfect the siRNAs according to the manufacturer's protocol. Cells were seeded in 6-well plates (200,000 cells/well) and allowed to adhere overnight. Next day, 10 nM siRNA was transfected with 4 μl jetPRIME reagent in complete growth medium for each well. Next day cells were trypsinized, counted and re-plated on the 96 well plate for cell proliferation and drug assay. […] Cell growth medium was changed the next day and expression was detected 72 h post-transfection by immunoblotting.
as §1, §2

H23 spheroids = assay: 3D spheroid assay; assay type: cell-based
Protocol: (§3) The activation of apoptosis is marked with the increase in green fluorescence intensity.
(§4) To determine the sensitivities of the same cells in 3D, mKate expressing cells were used to generate spheroids. Spheroids were monitored in real time using the IncuCyte live cell imaging system (FIG. 1B).
as §2

H358 spheroids = assay: 3D spheroid assay; assay type: cell-based
Protocol: as §3, §4, §2

SW1573 spheroids = assay: 3D spheroid assay; assay type: cell-based
Protocol: as §3, §4, §2

H23 cells = assay: Zebrafish larvae H23 xenotransplant; assay type: in vivo; settings: 72 h, 12 µM
SW1573 cells = assay: Protein array of global phosphorylation changes; assay type: cell-based; settings: IC50 concentration; 72 hours
Protocol: The phosphorylation changes were analyzed employing the AVM BioMed protein array platform.

SMILES: C=CC(=O)N1CCN(c2nc(=O)n(-c3c(C)ccnc3C(C)C)c3nc(-c4c(O)cccc4F)c(F)cc23)[C@@H](C)C1 [sotorasib]
- cell count (H23; H23, 1-3 μM, 24 h, start 9,000, control 15,000): 12,000
- IC50 (H23; Homo sapiens, NCI-H23, 72 h, H23, 72 hours, Example 6): 3 µM
- IC50 (H23; Homo sapiens, NCI-H23, H23, Example 1, FIG. 14C-14D): 3.2 µM
- inhibition at 0.3 µM (H23; Homo sapiens, NCI-H23, H23, 0.3 μM): ~20%
- inhibition at 10 µM (H23; Homo sapiens, NCI-H23, H23, 72 hours, read-out: inhibition of proliferation / cell growth): ~80%
- inhibition at 5 µM (H23; Homo sapiens, NCI-H23, H23 parental cells, 5 μM, FIG. 4B, read-out: inhibition of proliferation): 50%
- inhibition at 10 µM (H23; Homo sapiens, NCI-H23, H23 parental cells, FIG. 4B, read-out: inhibition of proliferation): 70%
- IC50 (H358): 0.063 µM
- inhibition at 0.61 µM (H358; H358, 0.61 μM): ~60%
- IC50 (H358; H358, 72 hours, Example 6, read-out: IC50, cell proliferation): 0.13 µM
- IC50 (H358; H358, Example 1, FIG. 14C-14D, read-out: IC50, cell proliferation): 0.8 µM
- inhibition at 10 µM (SW1573; Homo sapiens, SW1573, 72 h, read-out: inhibition of proliferation / cell growth): ~50%
- IC50 (SW1573; Homo sapiens, 72 hours, Example 6): 9.5 µM
- IC50 (SW1573; Homo sapiens, Example 1, FIG. 14C-14D): 8 µM
- inhibition of cell growth at last time point (SW1573; ITGB4/β-catenin double knockdown plus sotorasib): about 70%
- inhibition of cell growth at last time point (SW1573; sotorasib at IC50 concentration only): about 40%
- drop in spheroid red intensity (H23 spheroids; H23, 0.3 μM): about 40%
- inhibition at 0.3 µM (H23 spheroids; H23, 0.3 μM, read-out: inhibition of spheroid area): 70%
- spheroid red intensity dropped to (H23 spheroids; H23, 10 μM): 80%
- IC50 (H23 spheroids; H23 spheroid, read-out: IC50 in cell line derived spheroid): 12.3 µM
- drop in spheroid red intensity (H358 spheroids; H358, 0.3 μM): about 80%
- inhibition at 0.3 µM (H358 spheroids; Homo sapiens, NCI-H358, H358, 0.3 μM, read-out: inhibition of spheroid area): 90%
- IC50 (H358 spheroids; Homo sapiens, NCI-H358, H358 spheroid, read-out: IC50 in cell line derived spheroid): 0.0022 µM
- inhibition at 0.3 µM (SW1573 spheroids; Homo sapiens, SW1573, 0.3 μM, read-out: inhibition of spheroid area): 30%
- inhibition at 10 µM (SW1573 spheroids; Homo sapiens, SW1573, 10 μM, read-out: inhibition of spheroid area / reduction in spheroid growth): ~40%
- IC50 (SW1573 spheroids; Homo sapiens, SW1573 spheroid, read-out: IC50 in cell line derived spheroid): 12.6 µM
- spheroid red intensity dropped to (SW1573 spheroids; SW1573, 10 μM): 70%
- reduction of tumor growth (median) (H23 cells): about 80%
- number of proteins with phosphorylation changes unique to the treatment (SW1573 cells): 1482 proteins
- number of proteins with significant phosphorylation changes (SW1573 cells): 1764 proteins
